This is an account of results in ChEMBL document CHEMBL1141133, “Synthesis of a resveratrol analogue with high ceramide-mediated proapoptotic activity on human breast cancer cells” (J Med Chem, 2005).

This test relates to MDA-MB-231. The test can be described thus: Inhibitory concentration required for antiproliferative activity against human MDA-MB-231 cells. It counts as functional, cell-based.

The IC50 is the concentration that gives 50% inhibition. For `COc1ccc2cc(-c3cc(O)cc(O)c3)ccc2c1`, the IC50 came out at 28.3 µM. Under `COc1cc(OC)cc(-c2ccc3cc(OC)ccc3c2)c1` stands 45.1 µM. Under `Oc1cc(O)cc(-c2ccc3cc(O)ccc3c2)c1` stands 12.7 µM; under `COc1cc(OC)cc(-c2ccc3cc(O)ccc3c2)c1`, 7.2 µM; under `COc1cc(/C=C/c2ccc(O)cc2)cc(OC)c1` [PTEROSTILBENE], 10 µM. Under `COc1ccc(/C=C/c2cc(O)cc(O)c2)cc1` [RESVERATROL 4'-METHYL ETHER] stands over 50 µM; under `Oc1ccc(/C=C/c2cc(O)cc(O)c2)cc1` [RESVERATROL], 20.5 µM; under `COc1ccc(/C=C/c2cc(OC)cc(OC)c2)cc1` [TRISMETHOXYRESVERATROL], 1.2 µM.
